Measurements: patent US20240254066A1, “RESCORCINOLS, METHODS FOR THEIR MANUFACTURE, AND USES THEREOF” (GW Research Limited, priority 2021, published 2024)

System: tonic hind limb extensor convulsions (mouse model of generalised seizure)
Test: mini-MEST (maximal electroshock seizure threshold) test in the mouse
Conditions: for change in vivo at 50 mg/kg / change in vivo at 25 mg/kg / change in vivo at 5 mg/kg: Mus musculus, ip, change in CC50; for change in vivo at 50 mg/kg / change in vivo at 25 mg/kg: 0.5 h; for change in vivo at 50 mg/kg: read-out: % change from vehicle, 50 mg/kg i.p., 30 min post dose; for change in vivo at 25 mg/kg: read-out: % change from vehicle, 25 mg/kg i.p., 30 min post dose; for change in vivo at 5 mg/kg: 0.25 h, read-out: % change from vehicle, 5 mg/kg i.p., 15 min post dose
Description: The efficacy of novel resorcinols 2, 3, 5, 8, 10, 15, 16, 17, 18, 19, 41 45, 46, 53, 56 and 58 were tested in a novel mouse model of generalised seizure, the mini-MEST (maximal electroshock seizure threshold) test, which uses lower n numbers than typically used.
The maximal electroshock seizure threshold (MEST) test is widely utilized preclinically to evaluate pro- or anti-convulsant properties of test compounds (Loscher et al., 1991).
In the MEST test the ability of a drug to alter the seizure threshold current required to induce hind limb tonic extensor convulsions is measured according to an “up and down” method of shock titration (Kimball et al., 1957). An increase in seizure threshold is indicative of anti-convulsant effect.
The ability of a test compound to alter the stimulus intensity, expressed as current (mA), required to induce the presence of tonic hind limb extensor convulsions, is assessed in the MEST.
Naïve mice were acclimatised to the procedure room in their home cages for up to 7 days, with food and water available ad libitum.
All animals were weighed at the beginning of the study and randomly assigned to treatment groups based on a mean distribution of body weight across groups.
The first animal within a treatment group was given a shock at the expected or estimated CC50 current. For subsequent animals, the current was lowered or raised depending on the convulsions outcome from the preceding animal in log scale intervals.
Data generated from each treatment group were used to calculate the CC50±SEM values for the treatment group.
Vehicle: (5% ethanol, 10% solutol in 85% Saline) was prepared as follows: 1 mL of ethanol, 2 mL of solutol were warmed to 60° C., in 17 mL of saline (1:2:17).
The test compounds used were 2, 3, 5, 8, 10, 15, 16, 17, 18, 19, 41, 45, 46, 53, 56 and 58 Test compounds were administered at 5-50 mg/kg (i.p.) in a 1:2:17 ethanol:solutol:saline formulation.
Test compound effects were also calculated as percentage change in CC50 from the vehicle control group.
Significant difference between drug-treated animals and controls were assessed according to Litchfield and Wilcoxon (1949).

[1] = 50 mg/kg i.p., test 30 min post dose
[2] = 25 mg/kg i.p., test 30 min post dose
[3] = 5 mg/kg i.p., test 15 min post dose

SMILES | CC50 +/− SEM [1] | change in vivo at 50 mg/kg | CC50 +/− SEM [2] | change in vivo at 25 mg/kg | CC50 +/− SEM [3] | change in vivo at 5 mg/kg
C=C(C)[C@@H]1C[C@H](O)C(C)=C[C@H]1c1c(O)cc(-c2ccnc(OC)c2)cc1O [Compound 16, (1′R,2′R,4′S)-4-(2-Methoxypyridin-4-yl)-5′-methyl-2′-(prop-1-en-2-yl)-1″,2′,3′,4′-tetrahydro-[1,1′-biphenyl]-2,4′,6-triol] | 70.5 +/− 1.3 mA | 213% | – | – | – | –
C=C(C)[C@@H]1C[C@H](O)C(C)=C[C@H]1c1c(O)cc(Br)c(Cl)c1O [Compound 47, (1′R,2′R,4′S)-4-bromo-3-chloro-5′-methyl-2′-(prop-1-en-2-yl)-1″,2″,3′,4′-tetrahydro-[1,1′-biphenyl]-2,4′,6-triol] | – | – | 79.5 ± 10.0 mA | 238% | – | –
C=C(C)[C@@H]1C[C@H](O)C(C)=C[C@H]1c1c(O)cc(-c2ccc(F)c(OC)c2)cc1O [Compound 30, (1R,2R,4S)-4″-Fluoro-3″-methoxy-5-methyl-2-(prop-1-en-2-yl)-1,2,3,4-tetrahydro-[1,1′:4′,1″-terphenyl]-2′,4,6′-triol] | >131 mA | > 394% | – | – | 43.0 ± 1.9 mA | 62%
C=C(C)[C@@H]1C[C@H](O)C(C)=C[C@H]1c1c(O)c(C)c(-c2ccnc(OC)c2)c(C)c1O [Compound 52, (1′R,2′R,4′S)-4-(2-Methoxypyridin-4-yl)-3,5,5′-trimethyl-2′-(prop-1-en-2-yl)-1′,2′,3′,4′-tetrahydro-[1,1′-biphenyl]-2,4′,6-triol] | 76.5 ± 2.6 mA | 170% | – | – | 31.0 ± 4.5 mA | 9%
C=C(C)[C@@H]1C[C@H](O)C(C)=C[C@H]1c1c(O)cc(-c2cccnc2OC)cc1O [Compound 35, (1′R,2′R,4′S)-4-(2-Methoxypyridin-3-yl)-5′-methyl-2′-(prop-1-en-2-yl)-1′,2′,3′,4′-tetrahydro-[1,1′-biphenyl]-2,4′,6-triol] | >131.0 mA | 457% | – | – | 38.0 ± 1.9 mA | 62%
C=C(C)[C@@H]1C[C@H](O)C(C)=C[C@H]1c1c(O)cc(C2=CCOCC2)cc1O [Compound 26, (1′R,2′R,4′S)-4-(3,6-Dihydro-2H-pyran-4-yl)-5′-methyl-2′-(prop-1-en-2-yl)-1′,2″,3′,4′-tetrahydro-[1,1′-biphenyl]-2,4′,6-triol] | 50.0 ± 2.6 mA | 100% | – | – | 31.0 ± 0.2 mA | 24%
C=C(C)[C@@H]1C[C@H](O)C(C)=C[C@H]1c1c(O)cc(CCC)c(F)c1O [Compound 45, (1′R,2′R,4′S)-3-fluoro-5′-methyl-2′-(prop-1-en-2-yl)-4-propyl-1′,2′,3′,4′-tetrahydro-[1,1′-biphenyl]-2,4′,6-triol] | – | – | – | – | 35.5 +/− 0.5 mA | 58%
C=C(C)[C@@H]1C[C@H](OC)C(C)=C[C@H]1c1c(O)cc(CCC)cc1O [Compound 53, (1′R,2′R,4′S)-4′-Methoxy-5′-methyl-2′-(prop-1-en-2-yl)-4-propyl-1′,2″,3′,4′-tetrahydro-[1,1′-biphenyl]-2,6-diol] | – | – | 29.0 +/− 1.5 mA | 29% | – | –
C=C(C)[C@@H]1C[C@H](O)C(C)=C[C@H]1c1c(O)cc(Cl)cc1O [Compound 2, (1′R,2′R,4′S)-4-Chloro-5′-methyl-2′-(prop-1-en-2-yl)-1′,2′,3′,4′-tetrahydro-[1,1′-biphenyl]-2,4′,6-triol] | >114 mA | > 330% | – | – | 28.3 ± 1.1 mA | 7%
